Assay results reported in patent US11013702B2, “Midodrine hydrochloride oral solution and uses thereof” (Vertice Pharma, LLC, priority 2017, dated 2021).

Experiment: Solubility of midodrine hydrochloride in various solvents and pH values
Format: physicochemical

solubility (0.01N hydrochloric acid, simulated gastric fluid): > 10000 µg/mL | solubility (0.1N hydrochloric acid, simulated gastric fluid): > 10000 µg/mL | solubility (Simulated Gastric Fluid (SGF) pH 1.25): > 10000 µg/mL | solubility (aqueous buffer, Potassium Phosphate Buffer, pH 6.0): > 10000 µg/mL | solubility (potassium phosphate buffer, pH 2.5, aqueous buffer): > 10000 µg/mL | solubility (potassium phosphate buffer, pH 3.5, aqueous buffer): > 10000 µg/mL | solubility (potassium phosphate buffer, pH 4.5, aqueous buffer): > 10000 µg/mL | solubility (potassium phosphate buffer, pH 5.5, aqueous buffer): > 10000 µg/mL | solubility (potassium phosphate buffer, pH 6.8, aqueous buffer): > 10000 µg/mL | solubility (potassium phosphate buffer, pH 7.2, aqueous buffer): > 10000 µg/mL | solubility (potassium phosphate buffer, pH 7.5, aqueous buffer): > 10000 µg/mL | solubility (water): > 10000 µg/mL
Compound: COc1ccc(OC)c(C(O)CNC(=O)CN)c1.Cl (stereo not drawn) [Midodrine Hydrochloride, 2-amino-N-[2-(2,5-dimethoxyphenyl) -2-hydroxyethyl]acetamide hydrochloride]
